According to patent US8404713B2, “Quinolinone derivatives as PARP inhibitors” (Janssen Pharmaceutica NV, priority 2007, dated 2013):

What was measured:
Human PARP-1 enzyme = biological target: T1, Human PARP-1 enzyme (Homo sapiens, UniProt P09874); test: In vitro scintillation proximity assay (SPA) for PARP-1 inhibitory activity; format: biochemical; details: nicked DNA activated PARP-1, [3H]-NAD+, biotinylated histones; tested between 10^-5 M and 3x10^-9 M; read-out: in vitro SPA assay PARP-1 pIC50 (converted)
T1 construct: purchased Trevigen
T1 sequence (P09874 whole entry): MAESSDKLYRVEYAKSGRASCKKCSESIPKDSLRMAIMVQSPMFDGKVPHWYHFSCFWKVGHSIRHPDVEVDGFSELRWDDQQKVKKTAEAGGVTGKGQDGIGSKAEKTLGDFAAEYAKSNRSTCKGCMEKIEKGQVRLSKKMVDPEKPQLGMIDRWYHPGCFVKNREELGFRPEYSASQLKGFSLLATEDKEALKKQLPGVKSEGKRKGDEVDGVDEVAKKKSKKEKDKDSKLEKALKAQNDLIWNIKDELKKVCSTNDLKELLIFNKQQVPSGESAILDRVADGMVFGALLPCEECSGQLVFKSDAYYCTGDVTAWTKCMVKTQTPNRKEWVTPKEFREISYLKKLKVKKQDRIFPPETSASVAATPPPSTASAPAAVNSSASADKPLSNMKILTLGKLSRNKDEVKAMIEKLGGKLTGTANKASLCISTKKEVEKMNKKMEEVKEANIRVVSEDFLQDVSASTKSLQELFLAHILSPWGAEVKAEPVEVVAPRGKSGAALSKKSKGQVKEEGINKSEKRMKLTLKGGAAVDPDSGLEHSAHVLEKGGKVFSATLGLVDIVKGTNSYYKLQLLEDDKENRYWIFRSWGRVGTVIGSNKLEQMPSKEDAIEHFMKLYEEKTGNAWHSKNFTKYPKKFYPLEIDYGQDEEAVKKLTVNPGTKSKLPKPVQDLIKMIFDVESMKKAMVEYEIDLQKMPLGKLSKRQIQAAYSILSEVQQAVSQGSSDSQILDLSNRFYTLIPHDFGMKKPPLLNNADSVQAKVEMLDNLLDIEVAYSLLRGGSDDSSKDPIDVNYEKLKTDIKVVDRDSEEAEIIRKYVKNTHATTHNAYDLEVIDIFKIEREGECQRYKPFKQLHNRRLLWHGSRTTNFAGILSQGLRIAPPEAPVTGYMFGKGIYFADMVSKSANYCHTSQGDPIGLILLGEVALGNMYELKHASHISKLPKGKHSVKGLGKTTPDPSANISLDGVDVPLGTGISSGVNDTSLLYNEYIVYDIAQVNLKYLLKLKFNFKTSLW
Method: C.1. In Vitro Scintillation Proximity Assay (SPA) for PARP-1 Inhibitory Activity
Compounds of the present invention were tested in an in vitro assay based on SPA technology (proprietary to GE healthcare).
In principle, the assay relies upon the well established SPA technology for the detection of poly(ADP-ribosyl)ation of biotinylated target proteins, i.e histones. This ribosylation is induced using nicked DNA activated PARP-1 enzyme and [^3H]-nicotinamide adenine dinucleotide ([^3H]-NAD^+) as ADP-ribosyl donor.
Histones (type II-A, supplier: Sigma) were biotinylated using the biotinylation kit of Amersham and stored aliquoted at −20° C. A stock solution of 100 mg/ml SPA poly(vinyl toluene) (PVT) beads (supplier: Amersham) was made in PBS. A stock solution of 61.6 nM [^3H]-NAD^+ was made by adding [^3H]-NAD^+ (0.1 mCi/ml, supplier: Perkin Elmer) to incubation buffer (50 mM Tris/HCl, pH 8; 0.2 mM DTT; 4 mM MgCl2). A solution of 4 mM NAD^+ (supplier: Sigma) was made. Human PARP-1 enzyme was obtained from Trevigen. Biotinylated histones and PVT-SPA beads were mixed and pre-incubated for 30 min. at room temperature. PARP-1 enzyme (concentration was lot dependent) was mixed with the nicked DNA and the mixture was pre-incubated for 30 min. at 4° C. Equal parts of this histones/PVT-SPA beads solution and PARP-1 enzyme/DNA solution were mixed and 75 μl of this mixture together with 1 μl of compound in DMSO and 25 μl of [^3H]-NAD^+ was added per well into a 96-well microtiterplate. The final concentrations in the incubation mixture were 2 μg/ml for the biotinylated histones, 2 mg/ml for the PVT-SPA beads, 0.25 μg/ml for the nicked DNA and between 0.1-0.2 μg/ml for the PARP-1 enzyme. After incubation of the mixture for 20 min. at room temperature, the reaction was terminated by adding 100 μl of 4 mM NAD^+ in water (final concentration 2 mM) and plates were mixed. The beads were sedimented by centrifugation (10 min, 800 rpm). and plates transferred to a TopCountNXT™ (Packard) for scintillation counting, values were expressed as counts per minute (cpm). For each experiment, controls (containing PARP-1 enzyme and DMSO without compound), a blank incubation (containing DMSO but no PARP-1 enzyme, no DNA or compound) and samples (containing PARP-1 enzyme, DNA and compound dissolved in DMSO) were run in parallel. All compounds tested were dissolved and eventually further diluted in DMSO. A dose-response curve was made wherein the compounds were tested at concentrations between 10^−5M and 3×10^−9M. In each test, the blank value was subtracted from both the control and the sample values. The control sample represented maximal PARP-1 enzyme activity. For each sample, the amount of cpm was expressed as a percentage of the mean cpm value of the controls. When appropriate, IC50-values (concentration of the drug, needed to reduce the PARP-1 enzyme activity to 50% of the control) were computed using linear interpolation between the experimental points just above and below the 50% level. Herein the effects of test compounds are expressed as pIC50 (the negative log value of the IC50-value). As a reference compound, 4-amino-1,8-naphthalimide was included to validate the SPA assay.

TANK-2 enzyme = biological target: T2, TANK-2 enzyme (Homo sapiens, UniProt Q9H2K2); test: In vitro scintillation proximity assay (SPA) for TANK-2 inhibitory activity; format: biochemical; details: auto-poly(ADP-ribosyl)ation, Ni flash plates; 96-well results if available, otherwise 384-well; tested between 10^-5 M and 3x10^-8 M; read-out: in vitro SPA assay TANK-2 pIC50 (converted)
T2 construct: made in house
T2 sequence (Q9H2K2 1-1166): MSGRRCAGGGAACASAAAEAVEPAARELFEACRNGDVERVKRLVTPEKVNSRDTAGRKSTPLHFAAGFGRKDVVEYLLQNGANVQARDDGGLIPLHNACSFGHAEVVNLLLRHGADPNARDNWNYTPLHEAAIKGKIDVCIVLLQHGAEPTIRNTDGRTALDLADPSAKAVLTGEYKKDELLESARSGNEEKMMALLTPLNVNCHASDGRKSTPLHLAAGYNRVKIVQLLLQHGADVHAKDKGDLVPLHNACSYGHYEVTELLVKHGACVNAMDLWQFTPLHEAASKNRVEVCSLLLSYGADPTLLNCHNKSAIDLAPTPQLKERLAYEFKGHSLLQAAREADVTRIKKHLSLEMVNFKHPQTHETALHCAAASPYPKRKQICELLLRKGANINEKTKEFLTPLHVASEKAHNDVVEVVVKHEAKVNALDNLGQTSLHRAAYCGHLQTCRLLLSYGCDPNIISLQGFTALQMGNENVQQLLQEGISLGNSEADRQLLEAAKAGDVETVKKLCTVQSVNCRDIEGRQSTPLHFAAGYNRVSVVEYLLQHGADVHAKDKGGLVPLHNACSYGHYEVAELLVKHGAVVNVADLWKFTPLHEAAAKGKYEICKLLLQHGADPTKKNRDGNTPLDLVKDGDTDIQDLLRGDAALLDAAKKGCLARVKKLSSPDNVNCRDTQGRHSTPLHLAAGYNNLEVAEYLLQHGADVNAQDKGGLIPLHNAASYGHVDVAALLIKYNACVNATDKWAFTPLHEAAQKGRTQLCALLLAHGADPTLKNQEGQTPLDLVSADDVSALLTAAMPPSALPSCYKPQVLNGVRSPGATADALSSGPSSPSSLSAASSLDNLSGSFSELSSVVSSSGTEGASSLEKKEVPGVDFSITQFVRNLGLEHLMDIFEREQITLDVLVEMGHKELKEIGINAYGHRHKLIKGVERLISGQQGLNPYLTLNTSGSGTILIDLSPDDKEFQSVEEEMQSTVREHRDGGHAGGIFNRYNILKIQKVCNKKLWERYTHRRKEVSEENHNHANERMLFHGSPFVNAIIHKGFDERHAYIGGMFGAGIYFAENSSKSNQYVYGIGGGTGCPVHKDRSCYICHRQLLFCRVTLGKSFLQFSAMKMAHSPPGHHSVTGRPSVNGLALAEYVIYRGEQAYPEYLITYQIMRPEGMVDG
Method: C.2. In Vitro Scintillation Proximity Assay (SPA) for TANK-2 Inhibitory Activity
Compounds of the present invention were tested in an in vitro assay based on SPA technology with Ni Flash plates (96 or 384 well).
In principle, the assay relies upon SPA technology for the detection of auto-poly(ADP-ribosyl)ation of TANK-2 protein using [^3H]-nicotinamide adenine dinucleotide ([^3H]-NAD^+) as ADP-ribosyl donor.
A stock solution of 100 nM [^3H]-NAD^+/NAD (0.1 mCi/ml, supplier: Perkin Elmer) and 0.25 mM NAD (Sigma) was made in assay buffer (60 mM Tris/HCl, pH 7.4; 0.9 mM DTT; 6 mM MgCl2). The TANK-2 enzyme was produced as described in EP1238063. 60 μl of assay buffer, together with 1 μl of compound in DMSO, 20 μl of [^3H]-NAD^+/NAD and 20 μl of TANK-2 enzyme (final concentration 8 μg/ml) was added per well into a 96-well Ni-coated flash plate (Perkin Elmer). After incubation of the mixture for 120 min. at room temperature, the reaction was terminated by adding 60 μl of stopsolution (42.6 mg NAD in 6 ml H2O). The plates were covered with a plate sealer and placed in a TopCountNX™ (Packard) for scintillation counting. Values were expressed as counts per minute (cpm). For each experiment, controls (containing TANK-2 enzyme and DMSO without compound), a blank incubation (containing DMSO but no TANK-2 enzyme or compound) and samples (containing TANK-2 enzyme and compound dissolved in DMSO) were run in parallel. All compounds tested were dissolved and eventually further diluted in DMSO. […] In each test, the blank value was subtracted from both the control and the sample values. The control sample represented maximal TANK-2 enzyme activity. For each sample, the amount of cpm was expressed as a percentage of the mean cpm value of the controls. When appropriate, IC50-values (concentration of the drug, needed to reduce the TANK-2 enzyme activity to 50% of the control) were computed using linear interpolation between the experimental points just above and below the 50% level. Herein the effects of test compounds are expressed as pIC50 (the negative log value of the IC50-value). As reference compounds, 3-aminobenzamide and 4-amino-1,8-naphtalimide were included to validate the SPA assay. Herein the assay was described using 96-well plates. In the assay using 384-well plates the same final concentrations were used and volumes were adapted.

Row | SMILES | IC50 (Human PARP-1 enzyme) | IC50 (TANK-2 enzyme)
1 | CCc1cc2ccc(CNCC3CCN(c4ncccn4)CC3)cc2[nH]c1=O [Compound 25] | 136 nM | 1100 nM
2 | CCc1cc2c(OC)cc(CN3CCN(c4ccc(C#N)cn4)CC3)cc2[nH]c1=O [Compound 69] | – | 57.5 nM
3 | Cc1cc2ccc(C(C)N3CCN(c4cccc(Cl)c4)CC3)cc2[nH]c1=O (stereo not shown) [Compound 58] | 95.9 nM | 2320 nM
4 | CCc1cc2ccc(CN3CCN(c4ccccc4Cl)CC3)cc2[nH]c1=O [Compound 18] | 0.566 nM | 1930 nM
5 | CCc1cc2ccc(CN3Cc4ccccc4C3)cc2[nH]c1=O [Compound 63] | 39.2 nM | 455 nM
6 | Cc1cc2ccc(C(C)N3CCCCC3)cc2[nH]c1=O (stereo not shown) [Compound 53] | 49.8 nM | > 10000 nM
7 | Cc1cc2ccc(C(C3CCCCC3)N3CC=C(c4ccccc4)CC3)cc2[nH]c1=O (stereo not shown) [Compound 73] | 1290 nM | 646 nM
8 | Cc1cc2ccc(C(=O)N3CC=C(c4ccccc4)CC3)cc2[nH]c1=O [Compound 59] | 129 nM | 818 nM
9 | CCc1cc2ccc(C(O)CN3CCC(Cc4ccccc4)CC3)cc2[nH]c1=O (stereo not shown) [Compound 34] | 94.6 nM | 391 nM
10 | Cc1cc2ccc(CN3CCN(c4ncccn4)CC3)cc2[nH]c1=O [Compound 26] | 237 nM | 1980 nM
11 | CCc1cc2ccc(CN3CCN(c4ccc(OC)cc4)CC3)cc2[nH]c1=O [Compound 42] | 0.893 nM | 1300 nM
12 | CCc1cc2c(OC)cc(CN3CCN(c4ccccc4Cl)CC3)cc2[nH]c1=O [Compound 71] | 4.27 nM | 1780 nM
13 | CCc1cc2ccc(CN3CCN(c4ncc(C(=O)O)cn4)CC3)cc2[nH]c1=O [Compound 12] | 77.1 nM | 65.5 nM
14 | CCc1cc2ccc(CNCc3ccncc3)cc2[nH]c1=O [Compound 47] | 124 nM | 144 nM
15 | Cc1cc2ccc(C(C3CCCCC3)N3CCN(c4ccc(C#N)cn4)CC3)cc2[nH]c1=O (stereo not shown) [Compound 70] | 275 nM | 1910 nM
16 | CCc1cc2ccc(CNCc3ccc(F)cc3)cc2[nH]c1=O [Compound 48] | 24.4 nM | 254 nM

Row | SMILES | IC50 (Human PARP-1 enzyme) | IC50 (TANK-2 enzyme)
17 | CCc1cc2ccc(C(CO)N3CCN(c4ncccn4)CC3)cc2[nH]c1=O (stereo not shown) [Compound 33] | 84.7 nM | 780 nM
18 | Cc1cc2ccc(C(C3CCCCC3)N3CCC(c4ccccc4)CC3)cc2[nH]c1=O (stereo not shown) [Compound 65] | 4070 nM | > 10000 nM
19 | CCc1cc2ccc(CN(C)CCOC)cc2[nH]c1=O [Compound 38] | 11.9 nM | 867 nM
20 | CCc1cc2ccc(CN3CCN(c4ccc(C#N)cn4)CC3)cc2[nH]c1=O [Compound 17] | 0.865 nM | 76.6 nM
21 | CCc1cc2ccc(CN3CCN(c4ccc(C(F)(F)F)cn4)CC3)cc2[nH]c1=O [Compound 22] | 1.21 nM | 368 nM
22 | Cc1cc2ccc(C(C)N3CCC(c4ccccc4)CC3)cc2[nH]c1=O (stereo not shown) [Compound 74] | 6.46 nM | 1860 nM
23 | CCc1cc2ccc(CN3CCN(c4ccc(OC)c(OC)c4)CC3)cc2[nH]c1=O [Compound 41] | 34.2 nM | 500 nM
24 | Cc1cc2ccc(C(C3CCCCC3)N3CCN(c4ccccn4)CC3)cc2[nH]c1=O (stereo not shown) [Compound 75] | 309 nM | > 10000 nM
25 | CCc1cc2ccc(C(CO)N3CCOCC3)cc2[nH]c1=O (stereo not shown) [Compound 5] | 82.8 nM | 1440 nM
26 | Cc1cc2ccc(C(C)N3CCN(c4ccc(F)cc4F)CC3)cc2[nH]c1=O (stereo not shown) [Compound 52] | 1.42 nM | 2420 nM
27 | Cc1cc2ccc(C(C)N3CCN(c4ccccc4Cl)CC3)cc2[nH]c1=O (stereo not shown) [Compound 76] | 0.646 nM | 1550 nM
28 | COc1ccccc1N1CCN(C(c2ccc3cc(C)c(=O)[nH]c3c2)C2CCCCC2)CC1 (stereo not shown) [Compound 72] | ≥ 10000 nM | 933 nM
29 | CCc1cc2ccc(CN3CCN(c4ncc(C(=O)NCCO)cn4)CC3)cc2[nH]c1=O [Compound 62] | 8.95 nM | 33 nM
30 | CCc1cc2ccc(CNCCN3CCOCC3)cc2[nH]c1=O [Compound 19] | 4.6 nM | 5870 nM
31 | Cc1cc2ccc(C(C)N3CCN(C4CCCCC4)CC3)cc2[nH]c1=O (stereo not shown) [Compound 54] | 61.4 nM | > 10000 nM
